Test results published in PubChem BioAssay (NCI).
≈ marks a conversion by molar mass, not a printed value.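 Test compounds were applied to cells in 96-well plates for 48 hours at 5 doses. The concentration for 50% growth inhibition is given as GI50. TGI: concentration producing complete growth inhibition.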

Columns and labels:
Experiment in all cases: growth of human tumour cells (NCI), 48 h
HCT-116 colon = tested on: HCT-116 colon
LOX IMVI melanoma = tested on: LOX IMVI melanoma
NCI-H460 lung = tested on: NCI-H460 lung
PC-3 prostate = tested on: PC-3 prostate
SF-295 CNS = tested on: SF-295 CNS
SF-539 CNS = tested on: SF-539 CNS
SK-MEL-5 melanoma = tested on: SK-MEL-5 melanoma
SNB-19 CNS = tested on: SNB-19 CNS
SW-620 colon = tested on: SW-620 colon
UACC-62 melanoma = tested on: UACC-62 melanoma

| SMILES | TGI (HCT-116 colon) | TGI (LOX IMVI melanoma) | TGI (NCI-H460 lung) | TGI (PC-3 prostate) | TGI (SF-295 CNS) | TGI (SF-539 CNS) | TGI (SK-MEL-5 melanoma) | TGI (SNB-19 CNS) | TGI (SW-620 colon) | TGI (UACC-62 melanoma) | GI50 (HCT-116 colon) [µg/mL] | GI50 (LOX IMVI melanoma) [µg/mL] | GI50 (NCI-H460 lung) [µg/mL] | GI50 (PC-3 prostate) [µg/mL] | GI50 (SF-295 CNS) [µg/mL] | GI50 (SF-539 CNS) [µg/mL] | GI50 (SK-MEL-5 melanoma) [µg/mL] | GI50 (SNB-19 CNS) [µg/mL] | GI50 (SW-620 colon) [µg/mL] | GI50 (UACC-62 melanoma) [µg/mL] |
| --- | --- | --- | --- | --- | --- | --- | --- | --- | --- | --- | --- | --- | --- | --- | --- | --- | --- | --- | --- | --- |
| CC(C)N(C)C(=O)C12C3C4C1C1C2C3C41C#N (centres undefined) | > 100 µM | > 100 µM | > 100 µM | > 100 µM | > 100 µM | > 100 µM | > 100 µM | > 100 µM | > 100 µM | > 100 µM |  |  |  |  |  |  |  |  |  |  |
| CC(C)CNC(=O)Cn1c(-c2ccccc2)cc2ccccc21 | > 100 µM | > 100 µM | > 100 µM | > 100 µM | > 100 µM | > 100 µM | > 100 µM | > 100 µM | > 100 µM | > 100 µM |  |  |  |  |  |  |  |  |  |  |
| C=CC[C@@]1(C(=O)OC)[C@H](Sc2ccccc2)C1(C)C | > 100 µM |  | > 100 µM | > 100 µM | > 100 µM | > 100 µM | 44.3 µM | > 100 µM | > 100 µM | > 100 µM |  |  |  |  |  |  |  |  |  |  |
| COc1cc(C2SCC(=O)N2c2ccc(Oc3ccc(Cl)cc3)c(Cl)c2)cc(OC)c1OC (centres undefined) | 35.5 µM | 36.8 µM | > 100 µM | 28.9 µM | 34.6 µM | 54.2 µM | 32.1 µM | > 100 µM | 58.3 µM | 30.9 µM |  |  |  |  |  |  |  |  |  |  |
| COc1cc(/C=C2/N=C(c3ccccc3)N(C3=NNC4(C(=O)N3)c3ccccc3-c3ccccc34)NC2=O)ccc1O | 47.3 µg/mL | 66.8 µg/mL | 49.1 µg/mL | 79.6 µg/mL | 42.5 µg/mL | 59.3 µg/mL | 39.6 µg/mL | 87.3 µg/mL | 73.6 µg/mL | 48.3 µg/mL | 26.1 (≈ 46.8 µM) | 32.3 (≈ 58 µM) | 28 (≈ 50.2 µM) | 29.5 (≈ 53 µM) | 19.7 (≈ 35.5 µM) | 28.7 (≈ 51.6 µM) | 20.3 (≈ 36.5 µM) | 34.6 (≈ 62.1 µM) | 31.1 (≈ 55.9 µM) | 27.4 (≈ 49.2 µM) |
| Cc1ccc(SC(=O)N2C(=S)NC(=NC3CCCCC3)C23CCCCC3)cc1 | > 100 µM | > 100 µM | > 100 µM | > 100 µM | > 100 µM | > 100 µM | > 100 µM | > 100 µM | > 100 µM | > 100 µM |  |  |  |  |  |  |  |  |  |  |
| O=C(NCc1ccc(Cl)cc1)c1cc2sccc2nc1C(F)(F)F | > 100 µM |  |  | > 100 µM | > 100 µM | 70 µM | > 100 µM | 51.7 µM | > 100 µM | > 100 µM |  |  |  |  |  |  |  |  |  |  |
| C[N+](C)(C)c1ncnc2c1ncn2C1CCCCO1 (centres undefined) | > 100 µM | > 100 µM | > 100 µM | > 100 µM | > 100 µM |  | > 100 µM | > 100 µM | > 100 µM | > 100 µM |  |  |  |  |  |  |  |  |  |  |
| NCCCCNCCCNC(=O)c1nc(-c2csc(CCN)n2)sc1Cl | > 100 µM |  | > 100 µM |  | > 100 µM | > 100 µM | > 100 µM | > 100 µM | > 100 µM | > 100 µM |  |  |  |  |  |  |  |  |  |  |
| COc1c2cc(C(C)(C)C)cc1Cc1cccc(c1O)Cc1cc(C(C)(C)C)cc(c1OC)Cc1cccc(c1O)Cc1cc(C(C)(C)C)cc(c1OC)Cc1cccc(c1O)C2 | > 100 µM |  | > 100 µM | > 100 µM | > 100 µM | > 100 µM | > 100 µM | > 100 µM | > 100 µM | > 100 µM |  |  |  |  |  |  |  |  |  |  |
| CCO/C(O)=C(/C(=N)N1CCCC1)C(=O)Nc1cccc(C(F)(F)F)c1 | > 100 µM | > 100 µM | > 100 µM | > 100 µM | > 100 µM | 51.9 µM |  | > 100 µM | > 100 µM | > 100 µM |  |  |  |  |  |  |  |  |  |  |
| CC(=Nc1ccncc1)C(C)=Nc1ccncc1 | 83.9 µM | 42.1 µM | > 100 µM | 38.9 µM | > 100 µM | 35.1 µM | 47.1 µM | 68.5 µM | > 100 µM |  |  |  |  |  |  |  |  |  |  |  |
| O=C1/C(=C2\Sc3c(ccc(Cl)c3Cl)C2=O)Sc2c1ccc(Cl)c2Cl | > 100 µM |  | > 100 µM | > 100 µM | > 100 µM | > 100 µM | > 100 µM | > 100 µM | > 100 µM | > 100 µM |  |  |  |  |  |  |  |  |  |  |
| O=C1c2cccc3cccc(c23)C(=O)N1CCCNOCCONCCCN1C(=O)c2cccc3cccc(c23)C1=O | > 100 µM | > 100 µM | > 100 µM | > 100 µM | > 100 µM |  | > 100 µM | > 100 µM | > 100 µM | > 100 µM |  |  |  |  |  |  |  |  |  |  |
| CN(C)CCNc1ncnc2nc(-c3ccc4ccccc4c3)[nH]c12 | > 100 µM | > 100 µM | > 100 µM | > 100 µM | > 100 µM |  | > 100 µM | > 100 µM | > 100 µM | > 100 µM |  |  |  |  |  |  |  |  |  |  |
| COc1cc(/C=C2\CCC(C)C3=C2NC(=S)NC3c2cc(OC)c(OC)c(OC)c2)cc(OC)c1OC (centres undefined) | > 100 µM | > 100 µM |  | > 100 µM |  |  | 59 µM | > 100 µM | > 100 µM | > 100 µM |  |  |  |  |  |  |  |  |  |  |
| COc1cc(C2S/C(=C/c3ccccc3)C(=O)N2c2ccc(Cl)c(Cl)c2)cc(OC)c1OC (centres undefined) | > 78.9 µM | > 100 µM | > 100 µM | > 100 µM | > 100 µM |  | > 100 µM | > 100 µM | > 100 µM |  |  |  |  |  |  |  |  |  |  |  |
| COc1cc2c(cc1OC)-c1c3c(cc4c1[C@@H](C2)N(C)CC4)OCO3 | 36.6 µM | 75 µM | 14.3 µM |  | 16.7 µM | 16.5 µM | 19.3 µM | 59.9 µM | 30.3 µM | 20.2 µM |  |  |  |  |  |  |  |  |  |  |
| Oc1ccc(CCc2cc(O)cc(O)c2)cc1 | > 100 µM |  | > 100 µM | > 100 µM | > 100 µM | > 100 µM | > 100 µM | > 100 µM | > 100 µM | > 100 µM |  |  |  |  |  |  |  |  |  |  |
| O=C(NCCCNCCNC(=O)c1cc(-c2ccccc2)nc2ccccc12)c1cc(-c2ccccc2)nc2ccccc12 | 3.04 µM | 2.95 µM | 3.31 µM | 3.09 µM | 3.19 µM | 3.57 µM | 3.03 µM | 3.93 µM | 3.09 µM |  |  |  |  |  |  |  |  |  |  |  |
| O=C(CNc1ccc(Cl)cc1Cl)NC1C=Cc2ccc(S(=O)(=O)Nc3ccc(Cl)cc3Cl)cc2C1=O (centres undefined) | > 100 µM | > 100 µM | > 100 µM | > 100 µM | > 100 µM | > 100 µM |  | > 100 µM | > 100 µM | > 100 µM |  |  |  |  |  |  |  |  |  |  |
